Measured values taken from patent US9546194B2, “Aminosteroids for the treatment of a PTP1B associated disease” (Ohr Pharmaceutical Inc., priority 2012, dated 2017).

Assays:
[1] = target: T1, full length tyrosine phosphatase PTP1B (Homo sapiens, UniProt P18031); experiment: Inhibition of PTP1B (pNPP hydrolysis, absorbance at 405 nm); assay type: biochemical; conditions: 5 μM aminosteroid analogue; pNPP substrate; read-out: PTP1B % Inhib. at (5 μM)
T1 construct: purchased
T1 sequence (P18031 1-435): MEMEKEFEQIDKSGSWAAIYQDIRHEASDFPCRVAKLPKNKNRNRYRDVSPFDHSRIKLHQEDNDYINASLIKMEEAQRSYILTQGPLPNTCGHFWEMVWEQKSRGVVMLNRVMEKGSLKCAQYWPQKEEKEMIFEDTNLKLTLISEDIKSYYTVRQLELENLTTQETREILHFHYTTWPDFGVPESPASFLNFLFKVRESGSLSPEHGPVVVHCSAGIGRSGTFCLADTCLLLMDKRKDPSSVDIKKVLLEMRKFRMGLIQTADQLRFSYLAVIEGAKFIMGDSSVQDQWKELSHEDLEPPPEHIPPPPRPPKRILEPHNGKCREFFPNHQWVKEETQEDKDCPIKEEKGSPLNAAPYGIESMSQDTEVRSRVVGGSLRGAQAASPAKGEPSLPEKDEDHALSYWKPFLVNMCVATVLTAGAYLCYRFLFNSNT
Experimental: (§1) The aminosteroid analogues were tested for inhibition against the commercially available full length tyrosine phosphatase PTP1B. The ability of each analogue to inhibit the activity of PTP1B was measured in the presence of 5 μM of the aminosteroid analogue. The assay uses para-nitro-phenyl phosphate (pNPP), a non-specific substrate to assess phosphatase activity. Phosphatase activity was based on the ability of PTP1B to catalyze the hydrolysis of pNPP to p-nitrophenol (pNP).

[2] = Body weight change in ob/ob mouse; assay type: in vivo; conditions: ob/ob mice; 5 or 10 mg/kg ip every 3 days, 4 doses; % change in body weight vs study day 0, up to 30 days
Experimental: (§2) To determine in vivo efficacy of the aminosteroid analogues an ob/ob (Lep^ob) mouse model was used. Ob/ob mice are extensively used for screening of antidiabetic and/or anti-obesity agents. Ob/ob mice were treated with either saline or 5 or 10 mg/kg aminosteroid analogue every 3 days for a total of 4 doses via ip injection. Body weight, glucose tolerance and fasting blood glucose levels were measured for each group during the study. Each group had at least an N of 4 animals. All reagents and lab animals are commercially available.
Starting at study day 0, body weight measurements were taken every day for each group for up to 30 days. Percent change in body weight was calculated as the fractional response of body weight on study day X over the original body weight on study day 0.

[3] = tested on: ob/ob (Lep^ob) mouse; experiment: Oral glucose tolerance test (OGTT) in ob/ob mouse; assay type: in vivo; conditions: ob/ob mice; for change in vivo: Mus musculus, 336 h, 5 or 10 mg/kg ip every 3 days, 4 doses, OGTT study day 14, 1.5 g/kg oral glucose, 0-120 min, read-out: AbAUC % Change From Saline; for reduction in AbAUC compared to saline control (significance): OGTT study day 14, p<0.05
Experimental: as §2
On study day 14, an oral glucose tolerance test (OGTT) was performed to assess glucose tolerance. At time 0, an oral glucose challenge (1.5 g/kg) was administered by oral gavage. At time points 0, 15, 30, 60, 90, and 120 min post glucose load, 25 μl of whole blood was withdrawn from the tail vein of the animal and the glucose level was measured using a glucose analyzer. The glucose concentration vs time was plotted and the above baseline area under the curve (AbAUC) of the glucose excursion time curve was determined using trapezoidal rule analyses.

[4] = tested on: ob/ob (Lep^ob) mouse; experiment: Fasting blood glucose (FBG) in ob/ob mouse; assay type: in vivo; conditions: ob/ob mice; 5 or 10 mg/kg ip every 3 days, 4 doses; study day 14 after overnight fast
Experimental: as §2
On study day 13, all animal groups were fasted overnight. On study day 14, 25 μL of whole blood was collected and analyzed for the glucose level (mg/dL) using a glucose analyzer.

[5] = target: T2, full length TCPTP (Homo sapiens, UniProt P17706); experiment: Inhibition of TCPTP (pNPP hydrolysis, same manner as PTP1B assay); assay type: biochemical; conditions: 200 μM inhibitor; pNPP substrate; read-out: TCPTP % Inhib. at (200 μM)
T2 construct: except full length TCPTP was used as the enzyme
T2 sequence (P17706 1-415): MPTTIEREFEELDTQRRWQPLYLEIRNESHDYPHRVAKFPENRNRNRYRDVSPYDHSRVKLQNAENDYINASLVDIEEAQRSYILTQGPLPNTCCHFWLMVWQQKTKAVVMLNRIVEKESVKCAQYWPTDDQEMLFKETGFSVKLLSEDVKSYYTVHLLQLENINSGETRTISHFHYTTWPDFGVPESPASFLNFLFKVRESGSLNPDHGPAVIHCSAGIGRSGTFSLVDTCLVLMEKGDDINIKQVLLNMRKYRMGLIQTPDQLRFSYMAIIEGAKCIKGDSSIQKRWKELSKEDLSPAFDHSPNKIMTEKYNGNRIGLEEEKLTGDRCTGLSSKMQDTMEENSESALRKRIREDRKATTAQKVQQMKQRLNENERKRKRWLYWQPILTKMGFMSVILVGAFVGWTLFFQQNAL
Experimental: as §1
The aminosteroid analogues were also tested for their ability to inhibit the tyrosine phosphatase TCPTP as an indication of their potential toxicity by the inhibition of the immune response. The TCPTP inhibition assay was done in the same manner as the PTP1B assay except full length TCPTP was used as the enzyme and the inhibitor was at a concentration of 200 μM. The results of the TCPTP inhibition assays are shown in Table 1, column 4 and show three compounds that inhibit TCPTP less than 50% even at a […] greater concentration.

| SMILES | inhibition at 5 µM [1] [%] | % BW Nader [2] [%] | change in vivo [3] [%] | FBG % Change From Saline [4] [%] | inhibition at 200 µM [5] [%] | reduction in AbAUC compared to saline control (significance) [3] |
| --- | --- | --- | --- | --- | --- | --- |
| CC(C)[C@@H](CC[C@@H](C)[C@H]1CC[C@H]2[C@@H]3[C@H](O)C[C@H]4C[C@@H](NCCCNCCCCNCCCN)CC[C@]4(C)[C@H]3CC[C@]12C)OS(=O)(=O)O [MSI-1436, reference compound] | 54 | −52.6 | -55.9 | −51.3 | – | – |
| CCNC(=O)N(CCCN(C)C)C(=O)C(C)[C@H]1CCC2C3CC[C@H]4CC(NCCNC)CC[C@]4(C)C3CC[C@@]21C (some centres unmarked) [MSI-2500] | 0 | – | – | – | – | – |
| CCN(C(=O)NCCCN(C)C)C(=O)C(C)[C@H]1CCC2C3CC[C@H]4CC(NCCNC)CC[C@]4(C)C3CC[C@@]21C (some centres unmarked) [MSI-2501] | 0 | – | – | – | – | – |
| CC(C)CCC[C@@H](C)[C@H]1CCC2C3C[C@@H](O)[C@H]4C[C@@H](NCCN)CC[C@]4(C)C3CC[C@@]21C (some centres unmarked) [MSI-2502] | 0 | – | – | – | – | – |
| CC(C)CCC[C@@H](C)[C@H]1CCC2C3C[C@@H](O)[C@H]4C[C@H](NCCCN)CC[C@]4(C)C3CC[C@@]21C (some centres unmarked) [MSI-2504] | 43 | – | – | – | 22 | – |
| CC(C)CCC[C@@H](C)[C@H]1CCC2C3C[C@@H](O)[C@H]4C[C@@H](NCCCN)CC[C@]4(C)C3CC[C@@]21C (some centres unmarked) [MSI-2505] | 39 | – | – | – | – | – |
| CC(C)CCC[C@@H](C)[C@H]1CCC2C3C[C@@H](O)[C@H]4C[C@H](NCCCNCCCCN)CC[C@]4(C)C3CC[C@@]21C (some centres unmarked) [MSI-2506] | 60 | – | – | – | 60 | – |
| COC(=O)CC[C@@H](C)[C@H]1CCC2C3C(CC[C@@]21C)[C@@]1(C)CC[C@@H](NCCN2CCCCC2)C[C@H]1C[C@H]3O (some centres unmarked) [MSI-2507] | 94 | 1.4 | -45.8 | −9.4 | -11 | significant reduction |
| COC(=O)CC[C@@H](C)[C@H]1CCC2C3C(CC[C@@]21C)[C@@]1(C)CC[C@@H](NCCCCNCc2cccnc2)C[C@@H]1C[C@H]3O (some centres unmarked) [MSI-2510] | 72 | 1.6 | -32.9 | 12.0 | 23 | significant reduction |
| COC(=O)CC[C@@H](C)[C@H]1CCC2C3C(CC[C@@]21C)[C@@]1(C)CC[C@H](NCCCCNCc2cccnc2)C[C@@H]1C[C@H]3O (some centres unmarked) [MSI-2511] | 93 | −0.9 | -34.6 | 5.1 | 0 | significant reduction |
| COC(=O)CC[C@@H](C)[C@H]1CCC2C3CC[C@@H]4C[C@H](NCc5ccccn5)CC[C@]4(C)C3C[C@H](O)[C@@]21C (some centres unmarked) [MSI-2512] | 90 | 0.4 | -5.8 | 45.8 | -2 | – |
| CC(C)NCCNC1CC[C@]2(C)C3CC[C@@]4(C)C(CC[C@@H]4[C@H](C)CCC(=O)O)C3C[C@@H](O)[C@H]2C1 (some centres unmarked) [MSI-2515] | 89 | – | – | – | 19 | – |
| CC(C)CCC[C@@H](C)[C@H]1CCC2C3C[C@@H](O)[C@H]4C[C@@H](NCCCNCCCCNCCCN)CC[C@]4(C)C3CC[C@@]21C (some centres unmarked) [MSI-2516] | 56 | – | – | – | 25 | – |
| CC(C)CCC[C@@H](C)[C@H]1CCC2C3C[C@@H](O)[C@H]4C[C@H](NCCCNCCCCNCCCN)CC[C@]4(C)C3CC[C@@]21C (some centres unmarked) [MSI-2517] | 51 | – | – | – | 11 | – |
| COC(=O)CC[C@@H](C)[C@H]1CCC2C3C(CC[C@@]21C)[C@@]1(C)CC[C@H](NCCN2CCCCC2)C[C@@H]1C[C@H]3O (some centres unmarked) [MSI-2518] | 102 | – | – | – | 12 | – |
| COC(=O)CC[C@@H](C)[C@H]1CCC2C3C(CC[C@@]21C)[C@@]1(C)CCC(NCCNC(C)C)C[C@@H]1C[C@H]3O (some centres unmarked) [MSI-2519] | 102 | – | – | – | 26 | – |
| COC(=O)CC[C@@H](C)[C@H]1CCC2C3CC[C@@H]4C[C@H](NCCNC(C)C)CC[C@]4(C)C3CC[C@@]21C (some centres unmarked) [MSI-2521] | 103 | – | – | – | 67 | – |
| COC(=O)CC[C@@H](C)[C@H]1CCC2C3CC[C@@H]4C[C@@H](NCCNC(C)C)CC[C@]4(C)C3CC[C@@]21C (some centres unmarked) [MSI-2522] | 104 | – | – | – | 50 | – |
| COC(=O)CC[C@@H](C)[C@H]1CCC2C3C[C@H](O)[C@@H]4C[C@H](NCCNC(C)C)CC[C@]4(C)C3CC[C@@]21C (some centres unmarked) [MSI-2523] | 101 | – | – | – | 8 | – |
| COC(=O)CC[C@@H](C)[C@H]1CCC2C3C[C@H](O)[C@@H]4C[C@@H](NCCNC(C)C)CC[C@]4(C)C3CC[C@@]21C (some centres unmarked) [MSI-2524] | 103 | – | – | – | 15 | – |
| COC(=O)CC[C@@H](C)[C@H]1CCC2C3CC[C@@H]4C[C@@H](NCCNC(C)C)CC[C@]4(C)C3C[C@H](O)[C@@]21C (some centres unmarked) [MSI-2526] | 104 | – | – | – | – | – |
| COC(=O)CC[C@@H](C)[C@H]1CCC2C3C(CC[C@@]21C)[C@@]1(C)CCC(NCCNC(C)C)C[C@@H]1C[C@H]3NC(=O)OC (some centres unmarked) [MSI-2528] | 75 | – | – | – | 2 | – |
| COC(=O)CC[C@@H](C)[C@H]1CCC2C3C(CC[C@@]21C)[C@@]1(C)CC[C@@H](NCCNC(C)C)C[C@@H]1C[C@H]3SC (some centres unmarked) [MSI-2529] | 64 | – | – | – | 4 | – |
| COC(=O)CC[C@@H](C)[C@H]1CCC2C3C(CC[C@@]21C)[C@@]1(C)CCC(NCCNC(C)C)C[C@@H]1C[C@H]3S(C)(=O)=O (some centres unmarked) [MSI-2530] | 46 | – | – | – | 1 | – |
| COC(=O)CC[C@@H](C)[C@H]1CCC2C3C(CC[C@@]21C)[C@@]1(C)CC[C@H](NCCNC(C)C)C[C@@H]1C[C@H]3S(C)(=O)=O (some centres unmarked) [MSI-2531] | 48 | – | – | – | 1 | – |
| COC(=O)CC[C@@H](C)[C@H]1CCC2C3C(CC[C@@]21C)[C@@]1(C)CCC(NCCN(C)C)C[C@H]1C[C@H]3O (some centres unmarked) [MSI-2533] | – | – | – | – | 5 | – |
| COC(=O)CC[C@@H](C)[C@H]1CCC2C3CC[C@@H]4C[C@H](NCCN(C)C)CC[C@]4(C)C3CC[C@@]21C (some centres unmarked) [MSI-2534] | – | – | – | – | 0 | – |
| COC(=O)CC[C@@H](C)[C@H]1CCC2C3CC[C@@H]4CC(NCCN(C)C)CC[C@]4(C)C3CC[C@@]21C (some centres unmarked) [MSI-2535] | – | – | – | – | 8 | – |
